The values below come from patent US20150238447A1, “BETA-HYDROXY-BETA-METHYLBUTRYIC ACID-CONTAINING COMPOSITIONS AND USES THEREOF” (ABBOTT LABORATORIES, priority 2012, published 2015).

This test relates to mice fed a high fat diet. As to the kind of experiment: motor (exploratory) activity in activity monitoring chamber, Opto-Varimex 4. Type of test: in vivo. The settings on record: high fat diet plus Ca-HMB (170 or 340 mg/kg of drinking water) compared to high fat diet alone; 30 minutes observation. How it is done:
The mice arrived at the facility at 21 days post birth and were divided into 6 groups after a seven day quarantine. There were 5 animals each. […] were placed on the following diets:
Group 1: High Fat Diet alone;
Group 2: High Fat Diet plus 500 mg of leucine/kg of drinking water;
Group 3: High Fat Diet plus 1000 mg of leucine/kg of drinking water;
Group 4: High Fat Diet plus 170 mg of Ca-HMB/kg of drinking water;
Group 5: High Fat Diet plus 340 mg of Ca-HMB/kg of drinking water; and
One week before the initiation of the study, the animals were acclimatized in the activity monitoring chamber, daily for half an hour. On the day of experiment, each set of animals were placed in the activity monitoring chamber (chamber 1 to 5) for half an hour. Motor activity of the mice in each group was monitored using the Actometry Apparatus: “Opto-Varimex 4” Auto-track system, Model No: 0271-004M. The motor activity of each mouse was monitored once in a week between 8:30 AM and 12:00 PM for 30 minutes. Six sets of “half an hour observations” were made for each of the 30 animals. The software captured motor activity parameters while the animals were in the activity monitoring chamber.

In the case of `CC(C)(O)CC(=O)O` [HMB, beta-hydroxy-beta-methylbutyric acid], the exploratory activity entry is “enhanced exploratory activity”.
